# Assay results from patent US7915285B2, “Method for treating drug and behavioral addictions” (priority 2005, dated 2011).
# Read-outs that look alike come from different tables or passages of the source.
# Experiments:
# [1] = tested on: microglial activation marker CD11b; experiment: Brain immunohistochemistry and densitometry of microglial activation marker (Example 4); type: in vivo, rat; details: chronic morphine administration, FIG. 6
# Method: Immunoreactivity for OX-42 (antibody that recognizes complement type 3 receptors, e.g., CD11b) and/or glial fibrillary acidic protein (GFAP), microglial and astrocyte activation markers, respectively, were assessed. Sections (20 μm) were treated with 0.3% H2O2 in Tris-buffered saline (TBS) for 20 minutes at room temperature to suppress endogenous peroxidase activity. Sections were then incubated overnight at 4° C. in monoclonal mouse anti-rat OX-42 (1:100; Pharmingen, San Diego, Calif.) or monoclonal mouse anti-rat GFAP antibody (1:200; Chemicon, Temecula, Calif.) in TBS with 2% normal goat serum and 0.5% Triton-X-100. Subsequently, sections were incubated with the appropriate secondary biotinylated antibodies (1:400; Jackson ImmunoResearch, West Grove, Pa.) for 2 hours at room temperature, incubated in avidin -biotin complex solution (ABC; 1:200; Vector Laboratories, Burlingame, Calif.) for 2 hours at room temperature, followed by reaction with 0.5 mg/ml 3,3′-diaminobenzidine tetrahydrochloride (DAB; Sigma). Finally, sections were dried, dehydrated, and coverslipped with Permount. Staining was evaluated by light microscopy. Densitometry of immunohistochemical staining was subsequently evaluated using computer software (NIH image).
# interleukin-1 mRNA = experiment: mRNA analysis of brain nuclei by real-time PCR (Example 4); type: in vivo, rat; details: morphine; dorsal and ventral periaqueductal grey region, FIG. 8
# Method: Following scoring of withdrawal behaviors animals received an intraperitoneal injection of 0.8 ml of 50 mg/ml sodium pentobarbital, and once anesthetized, animals were transcardially perfused. Half of each treatment group were perfused with saline and half with 4% paraformaldehyde. Spinal cord and brains were collected (saline perfusion for protein and mRNA quantification and paraformaldehyde perfusion for immunohistochemistry). Samples collected from saline perfused animals were flash frozen in liquid nitrogen and stored at −80° C. Paraformaldehyde perfused samples were stored in 4% paraformaldehyde for 48 hours and then transferred to 30% sucrose (0.1% azide) until tissue sectioning.
# Amplification of cDNA was performed using the [sequence] […] Linearity and efficiency of PCR amplification were assessed using standard curves generated by increasing amounts of cDNA. SYBR green l fluorescence (PCR product formation) was monitored in real time using the MYIQ single color real-time PCR detection system (Bio-Rad). […] Linearity and efficiency of PCR amplification were assessed using standard curves generated by increasing amounts of cDNA. SYBR green 1 fluorescence (PCR product formation) was monitored in real time using the MYIQ single color real-time PCR detection system (Bio-Rad). […]
# [2] = Pharmacokinetics and tissue distribution of ibudilast in rat; type: in vivo
# Method: Ibudilast pharmacokinetics and distribution into plasma, muscle, brain, and spinal cord were assessed as follows.
# (§1) Drug stability and concentration were validated by HPLC/MS/MS.
# (§2) Pathogen-free adult male Sprague-Dawley rats (280-350 g; Harlan Labs) were used in all experiments. Rats were housed in temperature (23+/−3° C.) and light (12:12 light: dark; lights on at 0700 hr) controlled rooms with standard rodent chow and water available ad libitum. Behavioral testing was performed during the light cycle.
# Calibration standards in plasma were prepared by diluting each 0.5 mg/ml stock 1 in 100 into rat plasma to 5000 ng/ml (5 μl+495 μl), and then diluted further to 2.29 ng/ml by 3-fold serial dilution with plasma. Standards were used as low, mid and high QC samples, respectively.
# Calibration standards, QC and plasma study samples were prepared for HPLC injection by precipitating 25 μl of plasma with three volumes (75 μl) of ice cold acetonitrile containing 50 ng/ml diphenhydramine and 100 ng/ml dextromethorphan as the internal standards. Tissue study samples were prepared for HPLC injection by adding 1 μl of water per mg of tissue plus three volumes (relative to water) of ice cold acetonitrile containing 50 ng/ml diphenhydramine and 100 ng/ml dextromethorphan as the internal standards, then homogenizing with an electric homogenizer.
# [3] = Previous range-finding tolerability studies, intraperitoneal; type: in vivo; details: twice a day (bid) for multiple days
# [4] = tested on: naloxone-precipitated morphine withdrawal syndrome; experiment: Rat model of naloxone-precipitated morphine withdrawal, total withdrawal score (Example 2); type: in vivo
# Method: as §1
# as §2, with “(23[…]3°” for “(23+/−3°”, “cycle. Approval of the Institutional Animal Care and Use Committee at University of Colorado was obtained for all procedures.” for “cycle.”
# The schedule for morphine treatment (via subcutaneous injections) was as follows: Day 1: 5 mg/kg at 1000 hr, 5 mg/kg at 1300 hr, 5 mg/kg at 1700 hr; Day 2: 5 mg/kg at 1000 hr, 12.5 mg/kg at 1700 hr; Day 3: 15 mg/kg at 1000 hr; Day 4: 17.5 mg/kg at 1000 hr; Day 5: 5 mg/kg at 1000 hr, 17.5 mg/kg at 1200 hr.
# (§3) The withdrawal signs measured were: (1) abnormal posturing (an animal presses his abdomen and lower jaw against the floor of the cage); (2) exploration (an animal circles around the cage, thrusting its head in several directions and examining its surroundings); (3) jumping; (4) cleaning (grooming); (5) rearing (an animal stands on its hindpaws with the forepaws off the ground).
# Withdrawal scores were measured by blinded observers in 10 minute blocks for 60 minutes immediately after naloxone precipitated withdrawal was initiated. […]
# [5] = tested on: dopamine release in the nucleus accumbens; experiment: In vivo microdialysis of nucleus accumbens dopamine (Example 3); design: species or system rat
# Method: (§4) Dopamine release in the nucleus accumbens is thought to mediate the “reward” associated with drugs of abuse. […] After 3 baseline samples (20 minute inter-sample interval), morphine was administered to all rats. Dialysis samples were collected at 20 minute intervals for 180 minutes. To test behavioral withdrawal and reversal of morphine-induced dopamine, all rats were administered the opioid antagonist naloxone after the 60 minute sample time was completed.
# [6] = tested on: naloxone-induced behavioral withdrawal signs; experiment: Naloxone-induced withdrawal behavior during microdialysis (Example 3); type: in vivo, rat; details: 7.5 mg/kg b.i.d. with morphine, vs PEG-saline vehicle and morphine, FIG. 4
# Method: as §4
# [7] = type: in vivo, rat; details: normalized to weight at start of morphine
# [8] = tested on: naloxone precipitated withdrawal behaviors; experiment: Naloxone precipitated withdrawal behaviors (Example 4); type: in vivo, rat; details: for naloxone precipitated withdrawal behaviors: 60 minute observation period, FIG. 5
# Method: as §3
# Withdrawal scores were measured by blinded observers in 10 minute blocks for 60 minutes immediately after naloxone precipitated withdrawal was initiated. The observations were pooled from 1-10 minutes, 11-20 minutes, 21-30 minutes, 31-40 minutes, 41-50 minutes, 51-60 minutes for each individual rat after naloxone administration, giving six time points. The average score (for each time point) for all animals within an experimental group was reported as the “total withdrawal score” in FIGS. 2A-2D.
# [9] = Spontaneous opioid withdrawal induced weight loss (Example 5); type: in vivo, rat; details: FIG. 9
# Method: Pathogen-free adult male Sprague-Dawley rats were used in all experiments. Rats (350-375 g at the time of arrival; Harlan Labs, Madison, Wis.) were housed in temperature (23±3° C.) and light (12:12 light:dark; lights on at 0700 hours) controlled rooms with standard rodent chow and water available ad libitum. All procedures were approved by the Institutional Animal Care and Use Committee at the University of Colorado at Boulder. Upon arrival male Sprague Dawley rats (300-400g) were housed individually and allowed to acclimatize to the animal colony telemetry room for one week. 5×90 minute sessions of handling by investigators were performed during the following week. Rats were anesthetized with isoflurane, and emitters for measuring core body temperature ([…], Sun River, Oreg.) were implanted in the peritoneal cavity. Gross motor movement was assessed by telemetry using the same emitters used for recording core body temperature. The emitter had to move for activity to be counted; thus, stationary movements such as grooming were not counted. Activity counts and core body temperature were measured every minute and movement averaged over 120 minutes was calculated (thereby smoothing the data). […] Body weights were recorded prior to each dosing session to allow for accurate dose calculations and to track the opioid induced weight loss (also occurred on days when no dosing was conducted).
# [10] = tested on: nucleus accumbens dopamine; experiment: Nucleus accumbens dopamine microdialysis after 5 days of morphine and ibudilast (Example 6); type: in vivo, rat; details: for nucleus accumbens dopamine levels: 7.5 mg/kg
# Method: Pathogen-free adult male Sprague-Dawley rats were used in all experiments. Rats (300-325 g at the time of arrival; Harlan Labs, Madison, Wis.) were housed in temperature (23±3° C.) and light (12:12 light:dark; lights on at 0700 hours) controlled rooms with standard rodent chow and water available ad libitum. All procedures were approved by the Institutional Animal Care and Use Committee at the University of Colorado at Boulder. Upon arrival male Sprague Dawley rats (300-400 g) were housed in pairs and allowed to acclimatize to the animal colony for one week. 5×90 minute sessions of handling by investigators and animal acclimatization to the microdialysis environment were performed during the following week.
# Microdialysis guide cannula implantation was performed under halothane anaesthesia. CMA 12 guide cannulae (CMA Microdialysis) were aimed at either the right or left nucleus accumbens (AP=+1.7, LM=±0.8, DV=−6.0) in a counterbalanced fashion. Coordinates were from bregma using the atlas of Paxinos and Watson (1998). The guide cannulae and a tether screw (CMA Microdialysis) were anchored to the skull with three jeweler's screws and dental cement. Rats were individually housed after surgery and allowed to recover for one week.
# Animals then began a 7 day dosing regimen (groups of 6 animals at a time, n=10 per treatment group). […] Body weights were recorded prior to each dosing session to allow for accurate dose calculations and to track the opioid induced weight loss.
# Microdialysis probes (CMA 12, MW cut-off 20,000 Da, 2 mm active membrane) were inserted into the guide cannulae and rats were placed in separate Plexiglas infusion bowls with food and water available ad libitum. […] Dialysates were analyzed by HPLC within 2 weeks of collection.
# Dopamine in the dialysates was determined using an ESA 5600A COULARRAY detector with an ESA 5014B analytical cell and an ESA 5020 guard cell connected to an ESA HR80 column (C18, […], 80×3 mm) which was maintained at 30° C. […] Quantitative comparisons were made with external standards (Sigma-Aldrich, St Louis, Mo.) that were run each day. […]
# activated microglia = details: dose-dependent; cited from earlier work
# [11] = tested on: nucleotide phosphodiesterase (PDE); details: non-selective PDE inhibitor; cited from earlier work
# [12] = administered systemically; cited from earlier work
smiles,measurement,setting,value
CN1CC[C@]23c4c5ccc(O)c4O[C@H]2[C@@H](O)C=C[C@H]3[C@H]1C5 [morphine],CD11b staining after chronic administration,[1],visible upregulation of the microglia activation marker CD11b
same,interleukin-1 mRNA,interleukin-1 mRNA,"dramatic increase in interleukin-1 mRNA in the dorsal, but not the ventral periaqueductal grey region"
"CC(C)C(=O)c1c(C(C)C)nn2ccccc12 [ibudilast, 2-methyl-1-(2-(1-methylethyl)pyrazolo(1,5-a)pyridin-3-yl)1-propanone]",plasma concentration profile,[2]; i.p. 5 mg/kg,declined from Cmax in a biphasic manner
same,tissue distribution,"[2]; i.p. 5 mg/kg, muscle, brain, spinal cord",well distributed to peripheral (e.g. muscle) and central (e.g. brain and spinal cord) tissues
same,Cmax,"[2]; male, Sprague-Dawley, plasma and CNS tissues (brain, spinal cord), ip, i.p. ~5 mg/kg, in 15% ethanol/saline, read-out: maximal concentration (Cmax) in plasma and CNS tissues",~1000 ng/mL
same,half-life,"[2]; male, Sprague-Dawley, plasma, muscle, brain, spinal cord (all tissue compartments), ip, i.p. 5 mg/kg, all tissue compartments, read-out: elimination half-life",1.67 to 2.32 h
same,well-tolerated dose level,[3],up to 15 mg/kg
same,total withdrawal score,"[4]; high dose 7.5 mg/kg i.p. bid, FIG. 2B, 2D",remarkably attenuated behavioral signs of withdrawal
same,total withdrawal score,"[4]; low dose 2.5 mg/kg i.p. bid, vs saline controls, FIG. 2C",no effect compared to saline controls
same,dopamine release into the nucleus accumbens in response to morphine,"[5]; 7.5 mg/kg b.i.d. co-administered with morphine across 5 days, FIG. 3",suppressed release of dopamine into the nucleus accumbens in response to morphine
same,basal levels of dopamine,"[5]; 7.5 mg/kg b.i.d., baseline samples",did not decrease basal levels of dopamine
same,naloxone-induced behavioral withdrawal signs,[6],suppressed naloxone-induced behavioral withdrawal signs
same,morphine induced weight loss on day 7,[7]; 2.5 mg/kg ibudilast,16.6 ± 5.7 g
same,morphine induced weight loss on day 7,[7]; 7.5 mg/kg ibudilast,13.3 ± 7.1 g
same,naloxone precipitated withdrawal behaviors,[8]; 2.5 mg/kg,dramatic reduction of naloxone precipitated withdrawal behaviors
same,naloxone precipitated withdrawal behaviors,[8]; 7.5 mg/kg,dramatic reduction of naloxone precipitated withdrawal behaviors
same,individual withdrawal behaviors,[8]; on an individual behavior basis,"reductions in all behaviors except for rearing, exploration and wet dog shakes"
same,spontaneous opioid withdrawal induced weight loss,[9]; higher dose (7.5 mg/kg twice daily),substantially attenuated weight loss
same,spontaneous opioid withdrawal induced weight loss,[9]; lower dose (2.5 mg/kg twice daily),only a trend towards improved weight change
same,nucleus accumbens dopamine levels,"[10]; during naloxone precipitated opioid withdrawal, FIG. 10",reduced nucleus accumbens dopamine levels
same,nucleus accumbens dopamine levels,"[10]; following morphine administration, spontaneous opioid withdrawal, FIG. 11",also reduced nucleus accumbens dopamine levels
same,morphine induced nucleus accumbens dopamine increases,"[10]; morphine-dependent animals, during morphine administration and withdrawal, FIGS. 10 and 11",dramatically reduced morphine induced nucleus accumbens dopamine increases
same,production of inhibitory cytokine and neurotrophic factors,activated microglia,"enhanced the production of the inhibitory cytokine, IL-10, and additional neurotrophic factors"
same,production of pro-inflammatory mediators,activated microglia,"suppressed the production of nitric oxide (NO), reactive oxygen species, interleukin (IL)-1β, IL-6, and tumor necrosis factor (TNF)"
same,PDE inhibition profile,[11],"most active against PDE-3, PDE-4, PDE-10, and PDE-11"
same,blood-brain barrier passage,[12],crosses the blood-brain barrier when administered systemically
C=CCN1CC[C@]23c4c5ccc(O)c4O[C@H]2C(=O)CC[C@@]3(O)[C@H]1C5 [naloxone],morphine-induced dopamine release after opioid antagonist,[5]; naloxone given after the 60 minute sample,reversed the morphine-induced dopamine release
